The test system of data set [1] is Plasmodium falciparum. The data set is described as follows: Antimalarial activity against chloroquine-sensitive Plasmodium falciparum 3D7 infected in human erythrocytes after 72 hrs by SYBR Green-1 staining based fluorescence assay. In kind it is functional, organism-based. Particulars: 3D7, 72 h.
A short description of data set [2]: Drug uptake in FVB mouse brain at 5 mg/kg, iv administered as single dose by UPLC-MS/MS based equilibrium dialysis method. In kind it is ADME, organism-based. Particulars: in vivo. (In general: In equilibrium dialysis free small molecules cross a membrane that holds back macromolecules.)
Data set [3] is described as follows: Elimination half life in FVB mouse plasma at 5 mg/kg, iv administered as single dose. In kind it is ADME, organism-based. Particulars: read-out: beta t1/2 (converted).
In data set [4] the test system is Plasmodium falciparum. The data set is described as follows: Antimalarial activity against multiple drug-resistant Plasmodium falciparum C235. In kind it is functional.
A short description of data set [5]: Permeability from apical to basolateral side in MDCK cells. In kind it is ADME, cell-based, Canis lupus familiaris. Particulars: dog, read-out: permeability.
Data set [6] has as its system Plasmodium falciparum. The data set is described as follows: Antimalarial activity against […] Plasmodium falciparum D6. In kind it is functional.
In data set [7] the test system is Plasmodium falciparum. Description: Antimalarial activity against chloroquine-resistant Plasmodium falciparum K1 infected in human type A+ erythrocytes after 48 hrs by [3H]-hypoxanthine incorporation assay. In kind it is functional, organism-based.
Data set [8] has as its system Plasmodium falciparum. Description: Antimalarial activity against chloroquine-sensitive Plasmodium falciparum 3D7 infected in human type A+ erythrocytes after 48 hrs by [3H]-hypoxanthine incorporation assay. In kind it is functional, organism-based.
For data set [9], the system named is Plasmodium falciparum. Description: Antimalarial activity against Plasmodium falciparum 3D7 infected in human erythrocytes after 72 hrs by SYBR Green-1 staining based fluorescence assay. In kind it is functional, organism-based. To be noted: 3D7, 72 h.
In data set [10] the test system is Plasmodium falciparum. Description: Antimalarial activity against chloroquine-sensitive Plasmodium falciparum D6 infected in human red blood cells assessed as reduction in parasitic LDH activity by Malstat reagent based spectrophotometric method. In kind it is functional, organism-based.
Data set [11] has as its system Plasmodium falciparum. The data set is described as follows: Antimalarial activity against chloroquine-resistant Plasmodium falciparum W2 infected in human red blood cells assessed as reduction in parasitic LDH activity by Malstat reagent based spectrophotometric method. In kind it is functional, organism-based.
Data set [12] concerns Plasmodium falciparum. The data set is described as follows: Antimalarial activity against chloroquine-resistant Plasmodium falciparum W2 infected in human type A+ erythrocytes after 24 hrs by [3H]-hypoxanthine incorporation assay. In kind it is functional, organism-based.
The test system of data set [13] is Plasmodium falciparum. The data set is described as follows: Antimalarial activity against chloroquine-sensitive Plasmodium falciparum 3D7 infected in human type A+ erythrocytes after 24 hrs by [3H]-hypoxanthine incorporation assay. In kind it is functional, organism-based.
For data set [14], the system named is Plasmodium falciparum. Description: microbe, parasite or virus in culture. To be noted: D10, 24 h.
Description: Antimalarial activity against chloroquine-sensitive Plasmodium falciparum D10 after 24 hrs by [G-3H]-hypoxanthine incorporation assay
In data set [15] the test system is Plasmodium falciparum. Description: microbe, parasite or virus in culture. Particulars: K1, 24 h.
Description: Antimalarial activity against chloroquine-resistant Plasmodium falciparum K1 after 24 hrs by [G-3H]-hypoxanthine incorporation assay
Data set [16] deals with Plasmodium falciparum. The data set is described as follows: Antimalarial activity against chloroquine-resistant Plasmodium falciparum K1. In kind it is functional. To be noted: read-out: ED50 (the source's name).
Data set [17] has as its system Plasmodium falciparum. Description: Antimalarial activity against chloroquine-sensitive Plasmodium falciparum 3D7. Particulars: 3D7, read-out: ED50.

pEC50, pIC50: −log10 of the molar value. Values after ≈ are worked out from the molar mass of the structure shown.

`C=C[C@H]1CN2CC[C@H]1C[C@H]2[C@H](OC(=O)[C@H](CC(C)C)NC(=O)c1cn(CC)c2nc(C)ccc2c1=O)c1ccnc2ccc(OC)cc12`: the pIC50 in the data set on Plasmodium falciparum [1] was 6.68 to 7.92.
On the same count and under the same terms, the figure for `C=C[C@H]1CN2CC[C@H]1C[C@H]2[C@H](OC(=O)[C@@H](NC(=O)c1cn(C2CC2)c2cc(N3CCN(CC)CC3)c(F)cc2c1=O)[C@@H](C)CC)c1ccnc2ccc(OC)cc12` is 6.68 to 7.92.
Same read-out and setting: under `C=C[C@H]1CN2CC[C@H]1C[C@H]2[C@H](OC(=O)[C@H](C)NC(=O)c1cn2c3c(c(N4CCN(C)CC4)c(F)cc3c1=O)OC[C@@H]2C)c1ccnc2ccc(OC)cc12` stands 7.92.
Turning to `CN(CCNCC(O)c1cc(C(F)(F)F)nc2c(C(F)(F)F)cccc12)CC(O)c1cc(C(F)(F)F)nc2c(C(F)(F)F)cccc12` (stereo not drawn), in [2], the Drug uptake is given as 97 ng/g. Moreover, the half-life in data set [3] was 13 h. For the same molecule, the IC90 in the data set on Plasmodium falciparum [4] and in the data set with Plasmodium falciparum [6] was 0.022 to 0.08 µg/mL (≈ 0.032 to 0.116 µM) throughout. The Papp A→B in data set [5] was found to be 0.14 ×10⁻⁶ cm/s.
Molecule `C=C[C@H]1CN2CC[C@H]1C[C@H]2[C@H](OC(=O)CNC(=O)c1cn2c3c(c(N4CCN(C)CC4)c(F)cc3c1=O)OC[C@@H]2C)c1ccnc2ccc(OC)cc12` showed a pIC50 in the data set with Plasmodium falciparum [1] of 6.68 to 7.92.
With `COc1ccccc1N1CCN(CC2CN(CCNc3ccnc4cc(Cl)ccc34)C(=O)O2)CC1` (stereo not drawn), the pIC50 in the data set on Plasmodium falciparum [7] and in the data set on Plasmodium falciparum [8] was 6.37 to 7.21 throughout.
In the data set with Plasmodium falciparum [9], `C=C[C@H]1CN2CC[C@H]1C[C@H]2[C@H](OC(=O)[C@@H](CSCc1ccccc1)NC(=O)OCc1ccccc1)c1ccnc2ccc(OC)cc12` gave a pIC50 of more than 7.00.
For the molecule `C=C[C@H]1CN2CC[C@H]1C[C@H]2[C@H](OC(=O)CNC(=O)OC(C)(C)C)c1ccnc2ccc(OC)cc12`, in the data set on Plasmodium falciparum [9], the pIC50 was more than 7.00.
On the same count and under the same terms, under `C=C[C@H]1CN2CC[C@H]1C[C@H]2[C@H](OC(=O)[C@H](C)NC(=O)[C@H](Cc1ccccc1)NC(=O)CNC(=O)OCc1ccccc1)c1ccnc2ccc(OC)cc12` stands more than 7.00.
With `C=C[C@H]1CN2CC[C@H]1C[C@H]2[C@H](OC(=O)CNC(=O)c1cn(CC)c2nc(C)ccc2c1=O)c1ccnc2ccc(OC)cc12`, the pIC50 with Plasmodium falciparum [1] is 6.68 to 7.92.
On to `C=C[C@H]1CN2CC[C@H]1C[C@H]2[C@H](OC(=O)[C@H](COCc1ccccc1)NC(=O)OC(C)(C)C)c1ccnc2ccc(OC)cc12`, for which the pIC50 in the data set on Plasmodium falciparum [9] was more than 7.00.
For the molecule `O=C1OC(CN2CCN(c3ccccc3F)CC2)CN1CCCCNc1ccnc2cc(Cl)ccc12` (stereo not drawn), the pIC50 in the data set with Plasmodium falciparum [7] and with Plasmodium falciparum [8] was 6.37 to 7.21 throughout.
`O=C1OC(CN2CCN(c3ccccc3F)CC2)CN1CCNc1ccnc2cc(Cl)ccc12` (stereo not drawn): the negative-log IC50 (pIC50) in the data set with Plasmodium falciparum [7] and in the data set on Plasmodium falciparum [8] was 6.37 to 7.21 in each case.
Consider `COc1ccc(OCc2cn(CCNc3ccnc4cc(Cl)ccc34)nn2)cc1`, for which the pIC50 in the data set with Plasmodium falciparum [10] is 6.19; in the data set on Plasmodium falciparum [11], 5.95.
As for `C=C[C@H]1CN2CC[C@H]1C[C@H]2[C@H](OC(=O)[C@H](Cc1ccccc1)NC(=O)OC(C)(C)C)c1ccnc2ccc(OC)cc12`, in the data set on Plasmodium falciparum [9], the pIC50 was more than 7.00.
On the same count and under the same terms, under `C=C[C@H]1CN2CC[C@H]1C[C@H]2[C@H](OC(=O)[C@H](CCC(=O)OCc1ccccc1)NC(=O)OC(C)(C)C)c1ccnc2ccc(OC)cc12` stands more than 7.00.
Still for that read-out and setting: under `C=C[C@H]1CN2CC[C@H]1C[C@H]2[C@H](OC(=O)[C@H](CC(=O)OCc1ccccc1)NC(=O)OCc1ccccc1)c1ccnc2ccc(OC)cc12` stands 7.77.
For the molecule `O=C1OC(CN2CCN(c3ccccc3Cl)CC2)CN1CCNc1ccnc2cc(Cl)ccc12` (stereo not drawn), the pIC50 with Plasmodium falciparum [7] and with Plasmodium falciparum [8] was 6.37 to 7.21 throughout.
As for `CO[C@@]12OOC3(C=C1C[C@@H]1C=C[C@H]2C1)CCN(c1ccnc2cc(Cl)ccc12)CC3`, the pIC50 in the data set on Plasmodium falciparum [12] and with Plasmodium falciparum [13] was 6.62 to 6.73 in each case.
Turning to `O=C1OC(CN2CCN(c3ccccc3)CC2)CN1CCNc1ccnc2cc(Cl)ccc12` (stereo not drawn), the negative logarithm of the IC50 (pIC50) in the data set on Plasmodium falciparum [7] and in the data set on Plasmodium falciparum [8] was 6.37 to 7.21 throughout.
Consider `O[C@@]12OOC3(C=C1C[C@@H]1CC[C@H]2C1)CCN(c1ccnc2cc(Cl)ccc12)CC3`, for which the pIC50 with Plasmodium falciparum [12] and in the data set with Plasmodium falciparum [13] was 5.61 to 5.85 each time.
As to `CCN(CC)CCCC(C)Nc1cc(CCCCCCCCCCc2cc(NC(C)CCCN(CC)CC)c3ccccc3n2)nc2ccccc12` (stereo not drawn), the pIC50 in the data set on Plasmodium falciparum [14] is 7.37.
`O[C@@H](c1cc(C(F)(F)F)nc2c(C(F)(F)F)cccc12)[C@H]1CCCCN1` [(S,R)-MEFLOQUINE] showed a Drug uptake in data set [2] of 1600 ng/g. In data set [3], the half-life was 23 h. Besides, the pIC50 is 7.05 in the data set with Plasmodium falciparum [14] and 6.52 with Plasmodium falciparum [15].
Regarding `C[C@@H]1CC[C@H]2[C@@H](C)C(=O)O[C@@H]3O[C@@]4(C)CC[C@@H]1[C@]32OO4` [ARTEMISININ], in the data set on Plasmodium falciparum [12], the negative-log IC50 (pIC50) was 7.72.
`CCN(CC)CCCC(C)Nc1ccnc2cc(Cl)ccc12` (stereo not drawn) [CHLOROQUINE]: the values for the pEC50 in the data set on Plasmodium falciparum [16] and with Plasmodium falciparum [17] were 5.99 and 7.70, respectively.
As for `C[C@H]1COc2c(N3CCN(C)CC3)c(F)cc3c(=O)c(C(=O)O)cn1c23` [LEVOFLOXACIN], the pIC50 with Plasmodium falciparum [1] was less than 4.70.
For the molecule `C=C[C@H]1CN2CC[C@H]1C[C@H]2[C@H](O)c1ccnc2ccc(OC)cc12` [QUININE], the pIC50 in the data set with Plasmodium falciparum [9] is 7.74.

As usually defined, the pIC50 is −log10 of the IC50, conventionally taken in molar units. What is called IC90 is the concentration at which the effect reaches the 90% level.
